The text below walks through data of PubChem BioAssay (NCI).

Test in all cases: growth of human tumour cells (NCI), 48 h
The test system of test [1] is OVCAR-8 ovarian.
Test [2] relates to HT29 colon.
Test [3] relates to HCT-116 colon.
The subject of test [4] is SK-OV-3 ovarian.
In test [5] the test system is MDA-MB-435.
Test [6] deals with T-47D breast.
The subject of test [7] is HCC-2998 colon.
Test [8] has as its system CAKI-1 renal.
The test system of test [9] is HS 578T breast.
In test [10] the test system is PC-3 prostate.

“And” between values parts separate entries of the source, which are not always exact repeats. Equal values may be shown once.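 Cultured in 96-well plates, cells were exposed to test compound for 48 hours across five concentrations. GI50 = concentration required for 50% inhibition of growth. TGI: total growth inhibition.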 Bounds are passed on as bounds.

For `COc1cc2c3c(n(CCCN=[N+]=[N-])c(=O)c2cc1OC)-c1ccc(F)cc1C3=O`, the GI50 in test [1] is 21.2 µM; in [2] it was 12.3 µM; in test [3] it was 4.2 µM; in test [4] it was 11.6 µM; in test [5], 38.1 µM; in [6], 3.92 µM. In addition, the GI50 in test [7] is 16.3 µM; in test [8] it was 4.56 µM; in test [9], > 100 µM; in [10] it was 6.63 µM. Further, the TGI in [1], in [2], in [3], in [4], in [5] and in [6] was > 100 µM each time. Moreover, the TGI in [7], in test [8], in test [9] and in [10] was > 100 µM throughout.

On to `CCn1nc(C2CCN(C(=O)CCO)CC2)nc1-c1cnc(N)c(-c2nnc(C(C)(C)C)o2)n1`, for which the GI50 is 38.2 µM in [1]; 0.63 µM in [2]; 18.8 µM in test [3]; 0.286 µM in test [4]; 13 µM in [5]; 0.0731 µM in [6]. In addition, the GI50 is 10.7 µM in test [7], 3.35 µM in test [8], 0.836 µM in [9] and 3.2 µM in test [10]. Moreover, the TGI in test [1] is > 100 µM; in [2] it was 22 µM; in [3], 58.7 µM; in test [4] it was 2.74 µM; in test [5], > 100 µM; in [6], 0.57 µM. The TGI is > 100 µM in test [7], > 96.6 µM in test [8], 57 µM in [9] and > 100 µM in [10].

As to `COc1cc(CSc2nc3ccc(Cl)cc3c(=O)n2Cc2ccccc2)cc(OC)c1OC`, the GI50 in test [1] was 5.18 µM; in test [2] it was 3.32 µM; in test [3], 3.72 µM; in test [4] it was 3.23 µM; in test [5] it was 0.406 µM; in test [6], 3.92 µM. The GI50 in [7] is 6.18 µM; in [8], 3.19 µM; in [9] it was 1.63 µM; in test [10], 3.48 µM. The TGI in [1] is > 100 µM; in [2], > 100 µM; in test [3], > 100 µM; in test [4], 17.7 µM; in [5], 11.6 µM; in test [6] it was > 100 µM. Further, the TGI is > 100 µM in [7], > 100 µM in test [8], 14.5 µM in test [9] and > 100 µM in [10].

In the case of `CC(=O)O[C@@H]1c2c(c3c(=O)c4cccc(O)c4c(=O)c=3c2=[N+]=[N-])[C@H](OC(C)=O)[C@@H](OC(C)=O)[C@]1(C)O`, the GI50 in test [1] is 0.117 µM; in test [2] it was 0.135 µM and 0.113 µM; in test [3] it was 0.271 µM; in [4] it was 1.01 µM; in test [5] it was 0.27 µM; in test [6], 0.132 µM and 0.317 µM. In addition, the GI50 in test [7] is 0.358 µM; in [8], 0.182 µM; in [9] it was 0.575 µM; in test [10] it was 0.236 µM. In addition, the TGI is 0.77 µM and 0.461 µM in [1]; 0.605 µM and 0.265 µM in test [2]; 0.617 µM and 0.89 µM in [3]; 2.11 µM and 2 µM in [4]; 1.42 µM and 0.88 µM in test [5]; 0.649 µM and 1.39 µM in [6]. In addition, the TGI in test [7] is 0.522 µM and 1.22 µM; in test [8] it was 1.04 µM and 0.374 µM; in [9], 0.881 µM and 3.54 µM; in test [10], 1.14 µM and 1 µM.
